Measured values taken from US8415469B2, “Compounds and methods for kinase modulation, and indications therefor” (Plexxikon Inc., priority 2005, dated 2013).
Blank lines part the entries; values can stand above or below the molecule they belong to.

Tests used:
Assay type in all cases: biochemical
Gsk3β = Gsk3β (Homo sapiens, UniProt P49841); assay: AlphaScreen kinase assay, Gsk3β; settings: read-out: IC50, activity toward kinase Gsk3β
In short: (§1)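 Here, phosphorylation of a biotin-tagged peptide was sensed by proximity of streptavidin donor and antibody-bearing acceptor beads. Test compounds covered 8 concentrations by 1:3 serial dilution of 20 mM DMSO stocks.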

Plk1 = Plk1 (Homo sapiens, UniProt P53350); assay: AlphaScreen kinase assay, Plk1; settings: read-out: IC50, activity toward kinase Plk1
In short: as §1

Tie2 = Tie2 (Homo sapiens, UniProt Q02763); assay: AlphaScreen kinase assay, Tie2; settings: read-out: IC50, activity toward kinase Tie2
Text: (§2) AlphaScreen assay was used to screen additional kinases. The assay is similarly dependent on the phosphorylation of a peptide substrate. In this assay, an antibody that recognizes phosphorylated substrate is bound to an acceptor bead. The peptide substrate is attached to biotin, which binds to a donor head that contains streptavidin. Thus phosphorylated substrate is bound by antibody and streptavidin, bringing the donor and acceptor heads into close proximity when kinase is not inhibited. The donor produces singlet oxygen which results in emission from the acceptor when they are in close proximity. Conversely, when kinase is inhibited, the donor and acceptor beads are not associated and the emission from the acceptor is reduced.
(§3) AlphaScreen assays were done using compounds dissolved in DMSO to a concentration of 20 mM. The compounds were diluted accordingly to the desired final concentrations in each sample well, using 1:3 serial dilution for a total of 8 concentration points.

ALK = ALK (Homo sapiens, UniProt Q9UM73); assay: AlphaScreen kinase assay, ALK; settings: read-out: IC50, activity toward kinase ALK
Text: as §2, §3

Brk = Brk (Homo sapiens, UniProt Q13882); assay: AlphaScreen kinase assay, Brk; settings: read-out: IC50, activity toward kinase Brk
In short: as §1

Zap70 = molecular target: T1, Zap70 (Homo sapiens, UniProt P43403); assay: AlphaScreen kinase assay, Zap70; settings: read-out: IC50, activity toward kinase Zap70
T1 construct: P1868.pFastBac1 ZAP70 D327-G606 HIS, WT; His7 (HHHHHHH) (C); made in house
T1 sequence (P43403 with tags, fused parts or gaps): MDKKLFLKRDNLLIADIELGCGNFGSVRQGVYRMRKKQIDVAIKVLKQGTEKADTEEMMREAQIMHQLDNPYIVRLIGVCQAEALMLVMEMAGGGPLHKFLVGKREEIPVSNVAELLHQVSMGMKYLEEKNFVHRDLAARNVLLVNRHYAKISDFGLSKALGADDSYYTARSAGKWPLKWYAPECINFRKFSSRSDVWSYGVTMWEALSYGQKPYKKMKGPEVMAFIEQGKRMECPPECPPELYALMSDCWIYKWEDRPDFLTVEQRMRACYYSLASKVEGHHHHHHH
In short: as §1

MAPKAPK2 = molecular target: T2, MAPKAPK2 (Homo sapiens, UniProt P49137); assay: Z'-Lyte FRET kinase assay (Invitrogen), MAPKAPK2; settings: read-out: IC50, activity toward kinase MAPKAPK2
T2 construct: purchased Invitrogen (assay run by Invitrogen)
In short: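 Under a compound concentration curve, the kinase acted on a dual-labelled peptide at 2 μM with ATP at 10 μM for one hour at ambient temperature (buffer pH 7.5, 1% DMSO). Phosphorylation extent came from the emission ratio after protease development.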

Erk2 = molecular target: T3, Erk2 (Homo sapiens, UniProt P28482); assay: AlphaScreen kinase assay, Erk2; settings: read-out: IC50, activity toward kinase Erk2
T3 construct: P4227.pET15S ERK2/MEK1DD; His6 with thrombin site (N); made in house
Text: as §2, §3

Sequence of Brk (Q13882 whole entry): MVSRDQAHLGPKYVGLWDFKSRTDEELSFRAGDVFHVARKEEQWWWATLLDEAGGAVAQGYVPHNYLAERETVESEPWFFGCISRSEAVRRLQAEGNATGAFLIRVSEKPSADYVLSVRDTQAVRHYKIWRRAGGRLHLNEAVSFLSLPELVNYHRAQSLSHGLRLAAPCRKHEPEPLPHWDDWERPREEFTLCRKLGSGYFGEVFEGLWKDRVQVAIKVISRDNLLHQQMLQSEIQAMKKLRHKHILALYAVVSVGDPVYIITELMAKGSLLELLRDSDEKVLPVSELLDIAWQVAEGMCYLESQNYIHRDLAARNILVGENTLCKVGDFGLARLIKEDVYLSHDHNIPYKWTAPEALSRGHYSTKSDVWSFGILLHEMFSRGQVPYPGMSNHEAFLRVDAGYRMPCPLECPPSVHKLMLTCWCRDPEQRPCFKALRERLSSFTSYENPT
T3 sequence (P28482 with tags, fused parts or gaps): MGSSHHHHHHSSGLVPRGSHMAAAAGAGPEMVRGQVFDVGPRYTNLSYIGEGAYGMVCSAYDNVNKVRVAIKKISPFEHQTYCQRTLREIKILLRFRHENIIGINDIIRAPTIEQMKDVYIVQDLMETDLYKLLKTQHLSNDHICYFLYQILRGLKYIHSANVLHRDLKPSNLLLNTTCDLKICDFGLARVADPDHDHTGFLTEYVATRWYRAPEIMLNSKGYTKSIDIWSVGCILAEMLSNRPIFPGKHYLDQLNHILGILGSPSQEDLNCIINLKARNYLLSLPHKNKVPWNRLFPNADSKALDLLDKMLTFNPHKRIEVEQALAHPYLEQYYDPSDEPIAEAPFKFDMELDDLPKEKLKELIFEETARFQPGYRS
T2 sequence (P49137 whole entry): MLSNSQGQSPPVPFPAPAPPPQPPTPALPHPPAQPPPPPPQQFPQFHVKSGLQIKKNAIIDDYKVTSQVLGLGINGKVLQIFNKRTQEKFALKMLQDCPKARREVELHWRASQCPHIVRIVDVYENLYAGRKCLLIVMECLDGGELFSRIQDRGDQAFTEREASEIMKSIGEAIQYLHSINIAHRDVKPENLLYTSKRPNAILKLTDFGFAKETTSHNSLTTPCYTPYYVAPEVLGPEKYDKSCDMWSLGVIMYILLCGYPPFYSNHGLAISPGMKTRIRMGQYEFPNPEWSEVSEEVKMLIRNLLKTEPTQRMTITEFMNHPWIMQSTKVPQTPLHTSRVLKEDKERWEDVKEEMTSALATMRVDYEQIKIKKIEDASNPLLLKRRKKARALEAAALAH
Sequence of Gsk3β (P49841 whole entry): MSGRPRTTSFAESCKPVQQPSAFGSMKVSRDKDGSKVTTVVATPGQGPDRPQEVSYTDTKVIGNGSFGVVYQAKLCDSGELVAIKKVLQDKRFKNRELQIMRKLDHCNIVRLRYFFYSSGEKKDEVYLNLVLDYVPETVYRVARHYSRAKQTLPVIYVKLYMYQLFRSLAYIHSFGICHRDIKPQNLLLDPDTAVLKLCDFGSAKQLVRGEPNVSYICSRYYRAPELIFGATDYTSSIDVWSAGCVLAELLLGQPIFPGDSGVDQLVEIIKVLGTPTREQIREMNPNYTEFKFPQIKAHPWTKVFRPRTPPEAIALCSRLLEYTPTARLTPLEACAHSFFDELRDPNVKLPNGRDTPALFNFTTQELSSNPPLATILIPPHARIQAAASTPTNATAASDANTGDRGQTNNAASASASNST
Sequence of Plk1 (P53350 whole entry): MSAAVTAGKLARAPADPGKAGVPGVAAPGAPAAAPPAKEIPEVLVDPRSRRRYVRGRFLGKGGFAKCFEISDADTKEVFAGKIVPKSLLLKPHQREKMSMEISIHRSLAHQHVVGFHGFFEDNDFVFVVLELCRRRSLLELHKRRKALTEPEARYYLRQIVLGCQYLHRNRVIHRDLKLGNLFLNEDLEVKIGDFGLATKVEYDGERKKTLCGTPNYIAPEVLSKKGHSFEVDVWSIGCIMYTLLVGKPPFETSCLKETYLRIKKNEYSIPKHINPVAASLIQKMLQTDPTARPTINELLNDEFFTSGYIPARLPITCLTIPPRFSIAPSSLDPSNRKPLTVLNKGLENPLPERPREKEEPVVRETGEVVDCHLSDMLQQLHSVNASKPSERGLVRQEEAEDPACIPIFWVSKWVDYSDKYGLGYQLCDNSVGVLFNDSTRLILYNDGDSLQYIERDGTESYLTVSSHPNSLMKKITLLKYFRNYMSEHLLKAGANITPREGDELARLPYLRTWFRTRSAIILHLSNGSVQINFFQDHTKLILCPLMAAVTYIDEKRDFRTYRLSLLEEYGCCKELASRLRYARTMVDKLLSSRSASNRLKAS
Sequence of Tie2 (Q02763 23-1124): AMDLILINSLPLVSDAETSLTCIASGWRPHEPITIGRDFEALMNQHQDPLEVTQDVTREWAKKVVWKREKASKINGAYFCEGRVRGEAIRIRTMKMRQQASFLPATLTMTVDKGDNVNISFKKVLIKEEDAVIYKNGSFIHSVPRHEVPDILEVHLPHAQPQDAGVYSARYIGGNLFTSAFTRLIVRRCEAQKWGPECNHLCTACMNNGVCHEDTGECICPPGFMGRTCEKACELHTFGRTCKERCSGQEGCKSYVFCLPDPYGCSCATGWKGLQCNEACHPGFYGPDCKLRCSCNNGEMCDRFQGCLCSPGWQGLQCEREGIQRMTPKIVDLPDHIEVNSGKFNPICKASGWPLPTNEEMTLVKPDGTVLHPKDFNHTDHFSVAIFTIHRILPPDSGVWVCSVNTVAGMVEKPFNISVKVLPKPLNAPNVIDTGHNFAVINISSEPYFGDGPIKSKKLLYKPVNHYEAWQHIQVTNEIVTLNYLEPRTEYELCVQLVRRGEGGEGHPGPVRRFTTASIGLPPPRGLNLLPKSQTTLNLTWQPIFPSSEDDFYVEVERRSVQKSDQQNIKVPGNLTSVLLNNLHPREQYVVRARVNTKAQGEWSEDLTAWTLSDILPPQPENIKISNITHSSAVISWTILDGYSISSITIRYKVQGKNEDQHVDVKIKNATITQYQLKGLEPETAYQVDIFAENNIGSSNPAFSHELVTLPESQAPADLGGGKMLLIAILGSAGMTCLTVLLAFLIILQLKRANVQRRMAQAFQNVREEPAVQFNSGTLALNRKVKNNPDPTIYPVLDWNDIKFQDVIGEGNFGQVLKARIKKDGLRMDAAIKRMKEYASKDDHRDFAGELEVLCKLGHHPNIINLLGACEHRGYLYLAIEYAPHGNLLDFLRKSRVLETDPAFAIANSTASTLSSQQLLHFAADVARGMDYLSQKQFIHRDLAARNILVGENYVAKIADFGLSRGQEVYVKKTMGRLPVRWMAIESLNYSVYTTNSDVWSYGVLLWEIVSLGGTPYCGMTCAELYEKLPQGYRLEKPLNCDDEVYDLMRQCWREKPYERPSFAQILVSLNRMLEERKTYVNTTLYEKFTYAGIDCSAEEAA
Sequence of ALK (Q9UM73 19-1620): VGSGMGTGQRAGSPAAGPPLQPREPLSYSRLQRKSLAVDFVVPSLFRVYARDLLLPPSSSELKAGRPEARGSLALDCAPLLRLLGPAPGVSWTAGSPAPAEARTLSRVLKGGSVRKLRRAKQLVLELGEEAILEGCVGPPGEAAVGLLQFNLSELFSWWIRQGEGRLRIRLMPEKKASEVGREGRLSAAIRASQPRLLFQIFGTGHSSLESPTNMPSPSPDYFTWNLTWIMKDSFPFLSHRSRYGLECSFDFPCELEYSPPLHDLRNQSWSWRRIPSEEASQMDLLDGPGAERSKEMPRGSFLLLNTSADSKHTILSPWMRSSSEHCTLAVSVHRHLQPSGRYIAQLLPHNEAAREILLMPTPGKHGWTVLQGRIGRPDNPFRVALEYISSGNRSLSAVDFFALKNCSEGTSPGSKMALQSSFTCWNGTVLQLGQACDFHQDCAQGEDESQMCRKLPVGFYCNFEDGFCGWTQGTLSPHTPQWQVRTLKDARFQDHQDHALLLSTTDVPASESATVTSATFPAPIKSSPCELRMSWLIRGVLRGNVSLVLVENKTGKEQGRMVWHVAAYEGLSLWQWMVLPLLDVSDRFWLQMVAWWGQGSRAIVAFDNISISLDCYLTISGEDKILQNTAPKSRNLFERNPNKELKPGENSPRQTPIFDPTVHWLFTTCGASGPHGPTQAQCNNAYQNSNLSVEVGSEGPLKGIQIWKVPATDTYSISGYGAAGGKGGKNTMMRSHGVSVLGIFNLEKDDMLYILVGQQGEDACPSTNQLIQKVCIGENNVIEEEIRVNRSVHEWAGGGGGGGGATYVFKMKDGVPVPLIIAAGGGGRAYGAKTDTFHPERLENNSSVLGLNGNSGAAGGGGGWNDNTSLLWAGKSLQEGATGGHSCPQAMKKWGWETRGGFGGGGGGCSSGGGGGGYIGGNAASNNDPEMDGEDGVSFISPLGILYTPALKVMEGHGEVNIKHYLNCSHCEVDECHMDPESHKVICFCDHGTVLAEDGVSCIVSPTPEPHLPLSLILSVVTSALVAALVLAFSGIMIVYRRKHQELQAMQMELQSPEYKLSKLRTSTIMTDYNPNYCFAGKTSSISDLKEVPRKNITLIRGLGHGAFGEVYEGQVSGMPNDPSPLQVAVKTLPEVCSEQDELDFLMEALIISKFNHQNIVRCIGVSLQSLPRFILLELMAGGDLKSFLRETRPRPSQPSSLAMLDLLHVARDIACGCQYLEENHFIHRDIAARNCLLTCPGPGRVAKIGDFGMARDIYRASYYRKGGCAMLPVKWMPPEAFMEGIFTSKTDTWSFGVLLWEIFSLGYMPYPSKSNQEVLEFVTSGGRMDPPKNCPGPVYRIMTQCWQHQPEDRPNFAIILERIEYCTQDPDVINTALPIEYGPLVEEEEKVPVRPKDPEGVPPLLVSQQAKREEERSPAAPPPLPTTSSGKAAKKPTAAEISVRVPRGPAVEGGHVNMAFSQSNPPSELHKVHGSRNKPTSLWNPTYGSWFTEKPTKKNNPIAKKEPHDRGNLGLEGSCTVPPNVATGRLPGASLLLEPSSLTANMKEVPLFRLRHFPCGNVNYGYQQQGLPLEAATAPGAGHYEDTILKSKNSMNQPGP

IC50 (Gsk3β): ≤ 10 µM
Compound: Cc1ccccc1C(=O)c1c[nH]c2nccc(-c3cccc(NS(C)(=O)=O)c3)c12 [Compound P-0109]

IC50 (Zap70): ≤ 10 µM
Compound: Cc1ccc(F)cc1C(=O)c1c[nH]c2ncc(-c3cccc(N)c3)cc12 [Compound P-0040]

IC50 (Zap70): ≤ 10 µM
Compound: CC(=O)Nc1cccc(-c2cnc3[nH]cc(C(=O)c4cccc(O)c4F)c3c2)c1 [Compound P-0035, N-{3-[3-(2-Fluoro-3-hydroxy-benzoyl)-1H-pyrrolo[2,3-b]pyridin-5-yl]-phenyl}-acetamide]

IC50 (Zap70): ≤ 10 µM
Compound: CC(=O)Nc1cccc(-c2cnc3[nH]cc(C(=O)c4cc(O)ccc4F)c3c2)c1 [Compound P-0001]

IC50 (Tie2): ≤ 10 µM | IC50 (ALK): ≤ 10 µM | IC50 (Gsk3β): ≤ 10 µM
Compound: COc1cc(OC)cc(C(=O)c2c[nH]c3ncc(-c4cccc(NS(C)(=O)=O)c4)cc23)c1 [Compound P-1426, N-{3-[3-(3,5-Dimethoxy-benzoyl)-1H-pyrrolo[2,3-b]pyridin-5-yl]-phenyl}-methanesulfonamide]

IC50 (Zap70): ≤ 10 µM
Compound: CS(=O)(=O)Nc1cccc(-c2cnc3[nH]cc(C(=O)c4cccc(O)c4F)c3c2)c1 [Compound P-0038, N-{3-[3-(2-Fluoro-3-hydroxy-benzoyl)-1H-pyrrolo[2,3-b]pyridin-5-yl]-phenyl}-methanesulfonamide]

IC50 (Tie2): ≤ 10 µM | IC50 (ALK): ≤ 10 µM | IC50 (Gsk3β): ≤ 10 µM | IC50 (Brk): ≤ 10 µM | IC50 (Erk2): ≤ 10 µM
Compound: COc1cccc(C(=O)c2c[nH]c3ncc(-c4cccc(NC(C)=O)c4)cc23)c1F [Compound P-1336, N-{3-[3-(2-Fluoro-3-methoxy-benzoyl)-1H-pyrrolo[2,3-b]pyridin-5-yl]-phenyl}-acetamide]

IC50 (Gsk3β): ≤ 10 µM | IC50 (Zap70): ≤ 10 µM
Compound: COc1ccc(C(=O)c2c[nH]c3ncc(-c4cccc(/C=C/C(=O)O)c4)cc23)c(Cl)c1 [Compound P-0015]

IC50 (Zap70): ≤ 10 µM
Compound: NC(=O)c1cccc(-c2cnc3[nH]cc(C(=O)c4cccc(O)c4F)c3c2)c1 [Compound P-0034, 3-[3-(2-Fluoro-3-hydroxy-benzoyl)-1H-pyrrolo[2,3-b]pyridin-5-yl]benzamide]

Second part, the molecule before the results:

Compound: O=C(c1cccc(O)c1F)c1c[nH]c2ncc(Br)cc12 [Compound P-0067, (5-bromo-1H-pyrrolo[2,3-b]pyridin-3-yl)-(2-fluoro-3-hydroxy-phenyl)-methanone]
IC50 (Plk1): ≤ 10 µM

Compound: Nc1cccc(-c2ccnc3[nH]cc(C(=O)c4ccccc4F)c23)c1 [Compound P-0022]
IC50 (Plk1): ≤ 10 µM

Compound: OCCOc1ccc(F)c(Cc2c[nH]c3ncc(-c4cccnc4)cc23)c1F [Compound P-1394, 2-[2,4-Difluoro-3-(5-pyridin-3-yl-1H-pyrrolo[2,3-b]pyridin-3-ylmethyl)-phenoxy]-ethanol]
IC50 (Tie2): ≤ 10 µM | IC50 (ALK): ≤ 10 µM | IC50 (Brk): ≤ 10 µM

Compound: CCCCNC(=O)Nc1ccc(F)c(C(=O)c2c[nH]c3ncc(-c4cccnc4)cc23)c1F [Compound P-1318, 1-Butyl-3-[2,4-difluoro-3-(5-pyridin-3-yl-1H-pyrrolo[2,3-b]pyridine-3-carbonyl)-phenyl]-urea]
IC50 (Brk): ≤ 10 µM

Compound: CCCC(=O)Nc1ccc(F)c(Cc2c[nH]c3ncc(-c4cccnc4)cc23)c1F [Compound P-1280]
IC50 (Tie2): ≤ 10 µM | IC50 (ALK): ≤ 10 µM

Compound: Nc1cccc(-c2cnc3[nH]cc(C(=O)c4cccc(O)c4F)c3c2)c1 [Compound P-0004, [5-(3-amino-phenyl)-1H-pyrrolo[2,3-b]pyridin-3-yl]-(2-fluoro-3-hydroxy-phenyl)methanone]
IC50 (Zap70): ≤ 10 µM

Compound: O=C(O)/C=C/c1cccc(-c2cnc3[nH]cc(C(=O)c4ccccc4F)c3c2)c1 [Compound P-0033]
IC50 (Zap70): ≤ 10 µM

Compound: CCCS(=O)(=O)Nc1ccc(F)c(C(=O)c2c[nH]c3ncccc23)c1F [Compound P-0007, Propane-1-sulfonic acid [2,4-difluoro-3-(1H-pyrrolo[2,3-b]pyridine-3-carbonyl)-phenyl]-amide]
IC50 (MAPKAPK2): ≤ 10 µM | IC50 (Gsk3β): ≤ 10 µM | IC50 (Brk): ≤ 10 µM

Compound: Cc1ccccc1C(=O)c1c[nH]c2nccc(-c3ccc(C(N)=O)cc3)c12 [Compound P-0017]
IC50 (Gsk3β): ≤ 10 µM

Compound: Nc1cccc(-c2ccnc3[nH]cc(C(=O)c4cc(F)ccc4F)c23)c1 [Compound P-0046]
IC50 (Plk1): ≤ 10 µM

Compound: Fc1cc(F)cc(-c2ccnc3[nH]cc(Sc4ccccn4)c23)c1 [Compound P-0106]
IC50 (MAPKAPK2): ≤ 10 µM | IC50 (Gsk3β): ≤ 10 µM

Compound: O=C(c1cc(O)ccc1F)c1c[nH]c2ncc(-c3cccs3)cc12 [Compound P-0032]
IC50 (Zap70): ≤ 10 µM

Compound: Cc1ccc(S(=O)(=O)NCc2c[nH]c3ncccc23)cc1 [Compound P-0058]
IC50 (MAPKAPK2): ≤ 10 µM | IC50 (Erk2): ≤ 10 µM | IC50 (Zap70): ≤ 10 µM

Compound: Cc1ccccc1C(=O)c1c[nH]c2nccc(-c3cccc(N)c3)c12 [Compound P-0044]
IC50 (Plk1): ≤ 10 µM

Compound: Cn1cc(C(F)(F)F)c(-c2ccc(S(=O)(=O)NCc3c[nH]c4ncccc34)s2)n1 [Compound P-0041]
IC50 (MAPKAPK2): ≤ 10 µM | IC50 (Erk2): ≤ 10 µM | IC50 (Zap70): ≤ 10 µM

Compound: CCCS(=O)(=O)Nc1ccc(F)c(C(=O)c2c[nH]c3ncc(OC)cc23)c1F [Compound P-0806, Propane-1-sulfonic acid [2,4-difluoro-3-(5-methoxy-1H-pyrrolo[2,3-b]pyridine-3-carbonyl)-phenyl]-amide]
IC50 (Tie2): ≤ 10 µM | IC50 (ALK): ≤ 10 µM | IC50 (Brk): ≤ 10 µM
